Results as given in patent US11026944B2, “Compositions and methods for treating insomnia” (Eisai R&D Management Co., Ltd., priority 2014, dated 2021).
Like-named read-outs stand apart in the source and are kept apart here.

Assay: Crossover study of relative bioavailability of tablet versus capsule (005 Study): plasma PK
Type: in vivo, human
Conditions: for Tmax / concentration at 8 h / AUC(0-t) / AUC(0-inf) / Cmax / half-life: human, plasma; for concentration at 8 h: plasma at 8 h, read-out: C8 Mean(SD); for AUC(0-inf): read-out: AUC(0-inf) Mean(SD); for Cmax: read-out: Cmax Mean(SD); for half-life: read-out: t1/2 Mean(SD) (converted)
Description: Single-center, open-label, randomized crossover study was conducted to evaluate, in healthy adult subjects, the bioavailability of single solid oral doses of compound A in tablet formulation relative to single oral doses of compound A in capsule formulation at 2.5, 10, and 25 mg. Another objective of the study was to evaluate the safety and tolerability of tablet formulations of compound A at 2.5, 10, and 25 mg in healthy adult subjects. Approximately 36 subjects were randomly assigned to one of three cohorts (approximately 12 subjects per cohort) and received both a single dose of compound A as a capsule formulation and a single dose of compound A as a tablet formulation, in random sequence, in a 1:1 ratio. The doses were 2.5 mg, 10 mg, and 25 mg.
The study had two phases: Prerandomization and Randomization. The Prerandomization Phase lasted for up to 21 days and included a Screening Period and Baseline Period A, during which eligibility was established and baseline assessments before dosing of the first formulation occurred. The Randomization Phase consisted of two Treatment Periods (A and B), separated by Baseline Period B. On the first day of Treatment Period A, subjects received a single oral dose of the first formulation. After the first formulation dose, pharmacokinetic (PK) and safety assessments were obtained throughout Treatment Period A, and subjects completed a 20-day washout. Before dosing of the second formulation, subjects completed Baseline Period B assessments. Subjects then proceeded to Treatment Period B and received a single oral dose of the second formulation. Pharmacokinetic and safety assessments were obtained throughout Treatment Period B.
Blood samples for the determination of plasma concentrations of compound A were collected at the following times: Treatment Period A (Day 1 to Day 15): before and after dosing at 0.5 (30 minutes), 1, 1.5, 2, 3, 4, 5, 6, 8, 12, 24, 48, 72, 120, 168, 240, and 336 hours; Treatment Period B (Day 22 to Day 36): before and after dosing at 0.5 (30 minutes), 1, 1.5, 2, 3, 4, 5, 6, 8, 12, 24, 48, 72, 120, 168, 240, and 336 hours.
Plasma concentrations of compound A were measured using a validated liquid chromatography-tandem mass spectrometry (LC-MS/MS) assay.
Noncompartmental methods were used to calculate the following plasma PK parameters for compound A: area under the plasma concentration-time curve from time zero to 8 hours after dosing (AUC(0-8)), area under the plasma concentration-time curve from time zero to 72 hours after dosing (AUC(0-72)), area under the plasma concentration-time curve from time zero to time of the last quantifiable concentration (AUC(0-t)), area under the plasma concentration-time curve from time zero extrapolated to time infinity (AUC(0-inf)), maximum observed plasma drug concentration (Cmax), terminal elimination half-life (t1/2), absorption lag time (tlag), and time to reach the maximum (peak) plasma concentration after drug administration (tmax). The primary PK parameters were AUC(0-inf) and Cmax. The individual PK parameters of compound A were presented in the data listings by formulation (tablet or capsule) and dose (2.5, 10, or 25 mg). The PK parameters except tmax and tlag were summarized by formulation and dose using descriptive statistics: number of subjects, mean, SD, coefficient of variation, geometric mean, median, minimum, and maximum. The parameters tmax and tlag were summarized by formulation and dose using the following descriptive statistics: median, minimum, maximum, and the 90% confidence interval (CI) of the median point estimate. The natural log (In)-transformed PK parameters for compound A (AUC(0-inf), Cmax, AUC(0-8), AUC(0-72), and AUC(0-t)) were compared separately by dose with a mixed-effects model with sequence, treatment period, and formulation as fixed effects and subjects nested within sequence as a random effect. […]

[1] = across all dose levels (2.5, 10, 25 mg)
[2] = po, 2.5 mg, single oral 2.5 mg Capsule, healthy adults
[3] = po, 2.5 mg, single oral 2.5 mg Tablet, healthy adults
[4] = po, 10 mg, single oral 10 mg Capsule, healthy adults
[5] = po, 10 mg, single oral 10 mg Tablet, healthy adults
[6] = po, 25 mg, single oral 25 mg Capsule, healthy adults
[7] = po, 25 mg, single oral 25 mg Tablet, healthy adults

Structure (SMILES): Cc1ncc(OC[C@@]2(c3cccc(F)c3)C[C@H]2C(=O)Nc2ccc(F)cn2)c(C)n1 [Compound A, (1R,2 S)-2-(((2,4-dimethylpyrimidin-5-yl)oxy)methyl)-2-(3-fluorophenyl)-N-(5-fluoropyridin-2-yl) cyclopropanecarboxamide]
- Differences between formulations (tablet vs capsule) in AUC(0-8), AUC(0-72), AUC(0-t), AUC(0-inf) [1]: less than 13%
- Differences between tablet and capsule formulations in Cmax [1]: less than 16%
- absorption lag (either formulation, any dose level): no observed absorption lag
- Tmax (oral, tablet and capsule, across all dose levels, read-out: median tmax): 1 to 1.5 h
- concentration at 8 h (po, 2.5 mg, single oral 2.5 mg Capsule): 1.84 ng/mL
- concentration at 8 h (po, 2.5 mg, single oral 2.5 mg Tablet): 1.75 ng/mL
- AUC(0-t) (po, 2.5 mg, single oral 2.5 mg Capsule, healthy adults, read-out: AUC(0-8) Mean(SD)): 45.5 ng·h/mL
- AUC(0-t) (po, 2.5 mg, single oral 2.5 mg Capsule, healthy adults, read-out: AUC(0-72) Mean(SD)): 85.1 ng·h/mL
- AUC(0-inf) [2]: 103 ng·h/mL
- AUC(0-t) (po, 2.5 mg, single oral 2.5 mg Capsule, healthy adults, read-out: AUC(0-t) Mean(SD)): 94.9 ng·h/mL
- Cmax [2]: 15.9 ng/mL
- half-life [2]: 36.8 h
- Tmax (po, 2.5 mg, single oral 2.5 mg Capsule, healthy adults, read-out: tmax (median)): 1 h
- AUC(0-t) (po, 2.5 mg, single oral 2.5 mg Tablet, healthy adults, read-out: AUC(0-8) Mean(SD)): 47.1 ng·h/mL
- AUC(0-t) (po, 2.5 mg, single oral 2.5 mg Tablet, healthy adults, read-out: AUC(0-72) Mean(SD)): 84.3 ng·h/mL
- AUC(0-inf) [3]: 101 ng·h/mL
- AUC(0-t) (po, 2.5 mg, single oral 2.5 mg Tablet, healthy adults, read-out: AUC(0-t) Mean(SD)): 93.2 ng·h/mL
- Cmax [3]: 18 ng/mL
- half-life [3]: 35.1 h
- Tmax (po, 2.5 mg, single oral 2.5 mg Tablet, healthy adults, read-out: tmax (median)): 1 h
- concentration at 8 h (po, 10 mg, single oral 10 mg Capsule): 8.9 ng/mL
- concentration at 8 h (po, 10 mg, single oral 10 mg Tablet): 7.44 ng/mL
- AUC(0-t) (po, 10 mg, single oral 10 mg Capsule, healthy adults, read-out: AUC(0-8) Mean(SD)): 164 ng·h/mL
- AUC(0-t) (po, 10 mg, single oral 10 mg Capsule, healthy adults, read-out: AUC(0-72) Mean(SD)): 372 ng·h/mL
- AUC(0-inf) [4]: 531 ng·h/mL
- AUC(0-t) (po, 10 mg, single oral 10 mg Capsule, healthy adults, read-out: AUC(0-t) Mean(SD)): 511 ng·h/mL
- Cmax [4]: 49 ng/mL
- half-life [4]: 57 h
- Tmax (po, 10 mg, single oral 10 mg Capsule, healthy adults, read-out: tmax (median)): 1.5 h
- AUC(0-t) (po, 10 mg, single oral 10 mg Tablet, healthy adults, read-out: AUC(0-8) Mean(SD)): 178 ng·h/mL
- AUC(0-t) (po, 10 mg, single oral 10 mg Tablet, healthy adults, read-out: AUC(0-72) Mean(SD)): 341 ng·h/mL
- AUC(0-inf) [5]: 472 ng·h/mL
- AUC(0-t) (po, 10 mg, single oral 10 mg Tablet, healthy adults, read-out: AUC(0-t) Mean(SD)): 455 ng·h/mL
- Cmax [5]: 58.1 ng/mL
- half-life [5]: 59.5 h
- Tmax (po, 10 mg, single oral 10 mg Tablet, healthy adults, read-out: tmax (median)): 1 h
- concentration at 8 h (po, 25 mg, single oral 25 mg Capsule): 19.9 ng/mL
- concentration at 8 h (po, 25 mg, single oral 25 mg Tablet): 17.6 ng/mL
- AUC(0-t) (po, 25 mg, single oral 25 mg Capsule, healthy adults, read-out: AUC(0-8) Mean(SD)): 358 ng·h/mL
- AUC(0-t) (po, 25 mg, single oral 25 mg Capsule, healthy adults, read-out: AUC(0-72) Mean(SD)): 803 ng·h/mL
- AUC(0-inf) [6]: 1110 ng·h/mL
- AUC(0-t) (po, 25 mg, single oral 25 mg Capsule, healthy adults, read-out: AUC(0-t) Mean(SD)): 1080 ng·h/mL
- Cmax [6]: 105 ng/mL
- half-life [6]: 57.4 h
- Tmax (po, 25 mg, single oral 25 mg Capsule, healthy adults, read-out: tmax (median)): 1.5 h
- AUC(0-t) (po, 25 mg, single oral 25 mg Tablet, healthy adults, read-out: AUC(0-8) Mean(SD)): 386 ng·h/mL
- AUC(0-t) (po, 25 mg, single oral 25 mg Tablet, healthy adults, read-out: AUC(0-72) Mean(SD)): 795 ng·h/mL
- AUC(0-inf) [7]: 1100 ng·h/mL
- AUC(0-t) (po, 25 mg, single oral 25 mg Tablet, healthy adults, read-out: AUC(0-t) Mean(SD)): 1070 ng·h/mL
- Cmax [7]: 120 ng/mL
- half-life [7]: 57.6 h
- Tmax (po, 25 mg, single oral 25 mg Tablet, healthy adults, read-out: tmax (median)): 1 h
